Marks after values point to notes of the source that are not given here.
Key:
Botrytis cinerea = assay: Test E: tomato botrytis, preventive spray on tomato seedlings
Phytophthora infestans = assay: whole plant or invertebrate; format: in vivo
Pythium aphanidermatum = assay: Test A: bluegrass pythium blight, preventive spray on bluegrass seedlings
Rhizoctonia oryzae = assay: Test G: turf brown patch, preventive spray on creeping bent grass seedlings
Description: (the causal agent of turf brown patch) and incubated in a saturated atmosphere at 27° C. for 24 h, and then moved to a growth chamber at 27° C. for 5 days, after which disease ratings were made.

Plasmopara viticola = assay: Test D: grape downy mildew, spray after inoculation of grape seedlings; format: in vivo
From the text: Upon removal, disease ratings were made. […] A dash (-) indicates no test results.

fusarium graminearium = assay: Test I: wheat head scab, preventive spray on wheat seedlings
Description: (the causal agent of wheat head scab) and incubated in a saturated atmosphere at 20° C. for 72 h, and then moved to a growth chamber at 22° C. for 5 days, after which disease ratings were made.

[1] = test system: Colletotrichum orbiculare; assay: Test B: cucumber Colletotrichum anthracnose, preventive spray on cucumber seedlings
[2] = test system: Erysiphe graminis f. sp. tritici; assay: Test L: wheat powdery mildew, preventive spray on wheat seedlings
[3] = test system: Puccinia recondita f. sp. tritici; assay: Test K: wheat leaf rust, preventive spray on wheat seedlings
Septoria tritici = assay: Test J: wheat leaf blotch, preventive spray on wheat seedlings; format: in vivo
From the text: A dash (-) indicates no test results.

Septoria nodorum = assay: Test H: wheat glum blotch, preventive spray on wheat seedlings
Description: (the causal agent of wheat glum blotch) and incubated in a saturated atmosphere at 20° C. for 48 h, and then moved to a growth chamber at 22° C. for 5 days, after which disease ratings were made.

Compound	Test F disease control rating (Phytophthora infestans; 200 ppm) [%]	Test A disease control rating (Pythium aphanidermatum; 200 ppm) [%]	Test D disease control rating (Plasmopara viticola; 200 ppm) [%]	Test I disease control rating (fusarium graminearium; 200 ppm) [%]	Test J disease control rating (Septoria tritici; 200 ppm) [%]	Test E disease control rating (Botrytis cinerea; 40 ppm (*))	Test G disease control rating (Rhizoctonia oryzae; 40 ppm (*))	Test B disease control rating ([1]; 40 ppm (*))	Test L disease control rating ([2]; 40 ppm (*))	Test K disease control rating ([3]; 40 ppm (*))	Test J disease control rating (Septoria tritici; 40 ppm (*))	Test H disease control rating (Septoria nodorum; 40 ppm (*))	also measured
N#Cc1nc(Cl)c(-c2c(F)cccc2F)n(Cc2ccccc2)c1=O [compound 106]	0	0	0	0	12								Test E disease control rating (Botrytis cinerea; 200 ppm): 0%; Test G disease control rating (Rhizoctonia oryzae; 200 ppm): 0%; Test B disease control rating ([1]; 200 ppm): 0%; Test L disease control rating ([2]; 200 ppm): 94%; Test K disease control rating ([3]; 200 ppm): 91%; Test H disease control rating (Septoria nodorum; 200 ppm): 0%
CC(c1ccccc1)n1c(-c2c(F)cccc2F)c(Cl)nc(-n2cccn2)c1=O (stereo not shown) [compound 107]	0	0	0	69	93								Test E disease control rating (Botrytis cinerea; 200 ppm): 0%; Test G disease control rating (Rhizoctonia oryzae; 200 ppm): 0%; Test B disease control rating ([1]; 200 ppm): 0%; Test L disease control rating ([2]; 200 ppm): 0%; Test K disease control rating ([3]; 200 ppm): 98%; Test H disease control rating (Septoria nodorum; 200 ppm): 0%
CC(c1ccccc1)n1c(-c2c(F)cccc2F)c(Cl)nc(-n2cncn2)c1=O (stereo not shown) [compound 108]	0	0	0	0	11								Test E disease control rating (Botrytis cinerea; 200 ppm): 56%; Test G disease control rating (Rhizoctonia oryzae; 200 ppm): 0%; Test B disease control rating ([1]; 200 ppm): 0%; Test L disease control rating ([2]; 200 ppm): 0%; Test K disease control rating ([3]; 200 ppm): 0%; Test H disease control rating (Septoria nodorum; 200 ppm): 0%
CC(c1ccccc1)n1c(-c2c(F)cccc2F)c(Cl)nc(C#N)c1=O (stereo not shown) [compound 109]	0	0	0	0	0								Test E disease control rating (Botrytis cinerea; 200 ppm): 0%; Test G disease control rating (Rhizoctonia oryzae; 200 ppm): 0%; Test B disease control rating ([1]; 200 ppm): 0%; Test L disease control rating ([2]; 200 ppm): 0%; Test K disease control rating ([3]; 200 ppm): 0%; Test H disease control rating (Septoria nodorum; 200 ppm): 0%
CC(C)Cn1c(-c2c(Cl)ccc(Cl)c2Cl)c(Cl)nc(-n2cccn2)c1=O [compound 121]	0	0	0	0		100* %	44* %	91* %	0* %	99* %	100* %	99* %	
CCC(C)Cn1c(-c2c(F)cccc2F)c(Cl)nc(NN(C)C)c1=O (stereo not shown) [compound 134]	0	0	0	89		0* %	0* %	0* %	0* %	28* %	59* %	0* %	
CCC(C)Cn1c(-c2c(F)cccc2F)c(Cl)nc(NN2CCOCC2)c1=O (stereo not shown) [compound 135]	0	0	0	0		0* %	0* %	0* %	0* %	0* %	0* %	0* %	
Cc1cc(C)cc(-c2c(Cl)nc(-n3cncn3)c(=O)n2CC(C)C)c1 [compound 136]	58	0	40	0		0* %	0* %	0* %	0* %	0* %	28* %	0* %	
Cc1cc(C)cc(-c2c(Cl)nc(-n3cccn3)c(=O)n2CC(C)C)c1 [compound 137]	0	0	0	0	30	0* %	0* %	0* %	0* %	0* %		0* %	
CCCCn1c(-c2c(F)cccc2F)c(Cl)nc(-n2cccn2)c1=O [compound 148]	0	0	73	0		99* %	81* %	47* %	98* %	97* %	100* %	100* %	
CC(C)Cn1c(-c2cc(C(F)(F)F)cc(C(F)(F)F)c2)c(Cl)nc(-n2cccn2)c1=O [compound 150]						0* %	0* %	0* %	0* %	0* %	0* %	0* %	Test F disease control rating (Phytophthora infestans; 40 ppm (*)): 0* %; Test A disease control rating (Pythium aphanidermatum; 40 ppm (*)): 0* %; Test D disease control rating (Plasmopara viticola; 40 ppm (*)): 0* %; Test I disease control rating (fusarium graminearium; 40 ppm (*)): 0* %
CC(C)Cn1c(-c2ccc(Cl)o2)c(Cl)nc(-n2cccn2)c1=O [compound 151]	33	0	31	0		98* %	0* %	0* %	0* %	19* %	12* %	0* %	
CC(C)Cn1c(-c2ccc(Cl)s2)c(Cl)nc(-n2cccn2)c1=O [compound 152]	0	0	16	0		100* %	0* %	0* %	0* %	55* %	91* %	0* %	
CC(C)Cn1c(-c2ccoc2)c(Cl)nc(-n2cccn2)c1=O [compound 153]	0	0	31	0		79* %	0* %	0* %	0* %	0* %	20* %	0* %	
